Assay results: patent publication US7981903B2, “2-[2-{phenylamino}-1H-pyrrolo[2,3-D]pyrimidin-4-yl)amino] benzamide derivatives as IGF-1R inhibitors for the treatment of cancer” (GlaxoSmithKline LLC, priority 2007, dated 2011)

Columns and labels:
human IGF1R (hIGF1R) = target: T1, human IGF1R (hIGF1R) (Homo sapiens, UniProt P08069); assay: TR-FRET kinase assay of purified hIGF1R; assay type: biochemical; details: activated hIGF1R 0.5 nM, 10 μM ATP, values given as pIC50 category, read-out: IGF-1R pIC50 (converted)
T1 construct: containing amino acid residues 957-1367 of human IGF1R; made in house; host or cells: Sf9 cells (baculovirus)

ALK = ALK (Homo sapiens, UniProt Q9UM73); assay: ALK enzyme assay (HTRF); assay type: biochemical; details: 0.25 nM ALK, 15.0 μM ATP, values given as pIC50 category
How it was run: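 Isolated ALK phosphorylates a biotinylated tyrosine peptide, 120 min at 20° C; anti-phosphotyrosine Eu-cryptate/streptavidin-XL665 HTRF read after 60 min with EDTA-containing detection mix.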

human IR (hIR) = target: T2, human IR (hIR) (Homo sapiens, UniProt P06213); assay: TR-FRET kinase assay of purified hIR; assay type: biochemical; details: activated hIR 0.5 nM, 10 μM ATP, values given as pIC50 category
T2 construct: containing amino acid residues 979-1382 of human IR; made in house; host or cells: Sf9 cells (baculovirus), same process as hIGF1R

[1] = target: T3, NIH-3T3 cells overexpressing human IGF-1R (Homo sapiens, UniProt P08069); assay: IGF-1R cellular autophosphorylation (DELFIA); assay type: cell-based
T3 construct: expressed in transfected cells; host or cells: NIH-3T3 (mouse fibroblasts)
How it was run: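 Receptor autophosphorylation measured by DELFIA, capturing IGF-1R or IRβ and detecting with europium anti-pTyr, reported as percent of IGF-1- or insulin-stimulated signal. Compounds (30 uM to 1.5 nM) added 2 h before ligand, then 15 min stimulation (IGF-1 30 ng/ml or insulin 3 ug/ml).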

[2] = target: T4, NIH-3T3 cells overexpressing human IR (Homo sapiens, UniProt P06213); assay: IR cellular autophosphorylation (DELFIA); assay type: cell-based; details: 2 h compound, insulin 3 ug/ml for 15 minutes, IC50 category
T4 construct: expressed in transfected cells; host or cells: NIH-3T3 (mouse fibroblasts)
Description: NIH-3T3 cells overexpressing human IGF-1R or IR were plated in 96-well plates (10,000 cells/well) in culture media containing 10% fetal bovine serum and incubated at 37° C. in a 5% CO2 incubator. Twenty four hours post-plating, cells were treated with different concentrations of test compounds ranging from 30 uM to 1.5 nM. Two hours after compound addition, cells were stimulated with either human IGF-1 (30 ng/ml) or insulin (3 ug/ml) for 15 minutes. Cell lysates are analyzed for phosphorylated receptors using dissociation enhanced lanthanide fluor-immuno assay (DELFIA) with anti-IGF-1R (MAB391, R&D Systems, Minneapolis, Minn.) or anti-IRβ (sc-711, Santa Cruz Biotechnology, Santa Cruz, Calif.) capture antibody and europium-labeled anti-pTyr antibody (Eu-N1 PT66, Perkin Elmer, Waltham, Mass.) for detection. The fluorescence signal for cells treated with compounds was expressed as percent relative to 100% stimulation (IGF-1 or insulin stimulated signal).

Chain of ALK (Q9UM73 19-1620): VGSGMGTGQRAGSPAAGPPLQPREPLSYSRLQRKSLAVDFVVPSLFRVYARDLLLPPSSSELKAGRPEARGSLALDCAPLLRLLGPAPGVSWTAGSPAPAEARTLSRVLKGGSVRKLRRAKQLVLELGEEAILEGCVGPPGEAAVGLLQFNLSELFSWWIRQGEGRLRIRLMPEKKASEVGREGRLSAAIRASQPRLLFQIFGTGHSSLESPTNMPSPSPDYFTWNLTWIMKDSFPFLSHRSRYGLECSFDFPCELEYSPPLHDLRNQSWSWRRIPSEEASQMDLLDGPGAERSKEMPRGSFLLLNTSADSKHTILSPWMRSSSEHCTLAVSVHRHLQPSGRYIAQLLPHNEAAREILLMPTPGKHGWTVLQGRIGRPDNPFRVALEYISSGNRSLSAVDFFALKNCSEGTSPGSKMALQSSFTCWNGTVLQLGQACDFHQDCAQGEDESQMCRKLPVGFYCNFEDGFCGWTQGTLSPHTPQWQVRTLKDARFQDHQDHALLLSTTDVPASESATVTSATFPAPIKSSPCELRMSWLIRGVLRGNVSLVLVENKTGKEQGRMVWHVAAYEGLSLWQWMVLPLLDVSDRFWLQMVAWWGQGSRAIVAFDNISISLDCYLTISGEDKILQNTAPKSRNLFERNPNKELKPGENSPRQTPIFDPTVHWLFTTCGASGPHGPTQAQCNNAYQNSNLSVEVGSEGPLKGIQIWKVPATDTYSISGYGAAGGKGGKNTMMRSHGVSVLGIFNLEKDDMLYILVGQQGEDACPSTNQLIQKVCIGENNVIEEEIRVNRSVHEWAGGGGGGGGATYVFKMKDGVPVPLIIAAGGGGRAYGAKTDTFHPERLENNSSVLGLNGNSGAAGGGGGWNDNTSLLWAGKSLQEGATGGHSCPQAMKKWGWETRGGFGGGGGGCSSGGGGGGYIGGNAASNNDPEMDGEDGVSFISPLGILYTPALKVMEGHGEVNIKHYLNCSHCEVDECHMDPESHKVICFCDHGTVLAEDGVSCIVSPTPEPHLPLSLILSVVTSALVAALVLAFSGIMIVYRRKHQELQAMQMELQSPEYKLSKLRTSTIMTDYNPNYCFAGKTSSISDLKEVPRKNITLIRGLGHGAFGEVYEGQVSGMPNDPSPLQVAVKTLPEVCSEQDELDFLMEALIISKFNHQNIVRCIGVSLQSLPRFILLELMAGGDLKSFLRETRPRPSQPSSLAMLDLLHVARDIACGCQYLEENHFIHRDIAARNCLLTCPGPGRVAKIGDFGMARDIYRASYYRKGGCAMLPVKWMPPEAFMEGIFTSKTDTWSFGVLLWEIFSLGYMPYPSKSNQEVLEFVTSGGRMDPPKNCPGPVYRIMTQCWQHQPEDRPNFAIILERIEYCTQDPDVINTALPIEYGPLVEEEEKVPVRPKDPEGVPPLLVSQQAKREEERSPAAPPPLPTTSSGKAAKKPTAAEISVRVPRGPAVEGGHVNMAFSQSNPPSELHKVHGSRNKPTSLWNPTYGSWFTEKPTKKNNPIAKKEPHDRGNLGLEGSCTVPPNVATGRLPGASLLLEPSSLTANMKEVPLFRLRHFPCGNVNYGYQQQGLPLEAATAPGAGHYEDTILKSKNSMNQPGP
T2 sequence (P06213 979-1382): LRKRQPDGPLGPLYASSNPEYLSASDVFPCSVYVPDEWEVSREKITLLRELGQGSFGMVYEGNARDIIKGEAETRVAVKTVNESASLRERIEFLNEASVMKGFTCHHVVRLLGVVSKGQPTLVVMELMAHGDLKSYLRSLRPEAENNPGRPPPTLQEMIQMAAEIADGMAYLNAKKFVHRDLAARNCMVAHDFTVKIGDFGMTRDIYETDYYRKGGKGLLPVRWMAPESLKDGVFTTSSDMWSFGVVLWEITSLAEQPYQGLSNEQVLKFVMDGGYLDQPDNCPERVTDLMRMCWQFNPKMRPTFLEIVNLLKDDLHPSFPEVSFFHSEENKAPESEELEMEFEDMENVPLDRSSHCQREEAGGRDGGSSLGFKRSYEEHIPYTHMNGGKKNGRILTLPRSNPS
T4 sequence (P06213 28-1382): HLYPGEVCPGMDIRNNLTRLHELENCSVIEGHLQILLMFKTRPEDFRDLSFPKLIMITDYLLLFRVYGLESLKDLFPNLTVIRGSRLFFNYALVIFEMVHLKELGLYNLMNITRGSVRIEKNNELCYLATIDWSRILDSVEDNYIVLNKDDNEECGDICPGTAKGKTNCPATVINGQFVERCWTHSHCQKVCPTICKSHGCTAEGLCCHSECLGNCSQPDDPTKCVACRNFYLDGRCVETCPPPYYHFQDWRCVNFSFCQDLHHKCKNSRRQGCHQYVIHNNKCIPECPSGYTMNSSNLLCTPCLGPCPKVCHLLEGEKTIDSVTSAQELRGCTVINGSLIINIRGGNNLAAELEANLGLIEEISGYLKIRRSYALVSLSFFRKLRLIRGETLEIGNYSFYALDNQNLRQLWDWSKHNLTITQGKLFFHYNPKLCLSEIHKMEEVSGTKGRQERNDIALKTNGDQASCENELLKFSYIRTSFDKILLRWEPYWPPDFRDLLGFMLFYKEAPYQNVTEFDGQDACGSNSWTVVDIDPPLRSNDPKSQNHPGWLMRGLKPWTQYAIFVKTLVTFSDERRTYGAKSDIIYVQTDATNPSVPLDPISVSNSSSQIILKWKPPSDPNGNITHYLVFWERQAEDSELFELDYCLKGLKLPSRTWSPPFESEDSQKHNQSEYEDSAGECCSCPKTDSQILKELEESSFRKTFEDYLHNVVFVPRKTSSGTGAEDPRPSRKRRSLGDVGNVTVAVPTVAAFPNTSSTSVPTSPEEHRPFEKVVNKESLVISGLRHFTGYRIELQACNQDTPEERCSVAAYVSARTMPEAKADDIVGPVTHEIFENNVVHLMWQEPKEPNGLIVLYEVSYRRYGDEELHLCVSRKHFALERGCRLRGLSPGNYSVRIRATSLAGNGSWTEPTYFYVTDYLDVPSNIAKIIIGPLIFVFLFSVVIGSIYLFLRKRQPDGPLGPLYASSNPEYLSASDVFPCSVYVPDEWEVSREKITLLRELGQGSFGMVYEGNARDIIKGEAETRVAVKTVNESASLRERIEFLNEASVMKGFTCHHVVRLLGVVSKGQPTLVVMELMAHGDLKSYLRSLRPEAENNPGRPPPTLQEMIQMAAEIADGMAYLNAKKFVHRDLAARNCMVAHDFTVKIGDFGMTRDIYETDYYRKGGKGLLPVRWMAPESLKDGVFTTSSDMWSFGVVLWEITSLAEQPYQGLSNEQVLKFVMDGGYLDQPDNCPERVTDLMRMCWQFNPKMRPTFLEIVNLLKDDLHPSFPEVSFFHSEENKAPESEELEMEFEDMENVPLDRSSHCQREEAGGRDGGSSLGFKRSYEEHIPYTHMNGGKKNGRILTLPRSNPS
T1 sequence (P08069 957-1367): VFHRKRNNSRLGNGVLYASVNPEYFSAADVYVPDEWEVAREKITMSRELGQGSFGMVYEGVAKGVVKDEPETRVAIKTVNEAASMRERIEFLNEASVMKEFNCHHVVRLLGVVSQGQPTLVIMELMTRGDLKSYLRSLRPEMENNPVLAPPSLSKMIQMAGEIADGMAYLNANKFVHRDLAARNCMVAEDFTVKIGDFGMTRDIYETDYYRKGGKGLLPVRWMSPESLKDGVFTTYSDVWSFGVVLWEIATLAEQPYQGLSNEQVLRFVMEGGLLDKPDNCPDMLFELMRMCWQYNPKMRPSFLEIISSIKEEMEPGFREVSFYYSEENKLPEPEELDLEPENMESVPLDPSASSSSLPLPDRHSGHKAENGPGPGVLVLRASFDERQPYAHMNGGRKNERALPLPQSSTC
T3 sequence (P08069 31-1367): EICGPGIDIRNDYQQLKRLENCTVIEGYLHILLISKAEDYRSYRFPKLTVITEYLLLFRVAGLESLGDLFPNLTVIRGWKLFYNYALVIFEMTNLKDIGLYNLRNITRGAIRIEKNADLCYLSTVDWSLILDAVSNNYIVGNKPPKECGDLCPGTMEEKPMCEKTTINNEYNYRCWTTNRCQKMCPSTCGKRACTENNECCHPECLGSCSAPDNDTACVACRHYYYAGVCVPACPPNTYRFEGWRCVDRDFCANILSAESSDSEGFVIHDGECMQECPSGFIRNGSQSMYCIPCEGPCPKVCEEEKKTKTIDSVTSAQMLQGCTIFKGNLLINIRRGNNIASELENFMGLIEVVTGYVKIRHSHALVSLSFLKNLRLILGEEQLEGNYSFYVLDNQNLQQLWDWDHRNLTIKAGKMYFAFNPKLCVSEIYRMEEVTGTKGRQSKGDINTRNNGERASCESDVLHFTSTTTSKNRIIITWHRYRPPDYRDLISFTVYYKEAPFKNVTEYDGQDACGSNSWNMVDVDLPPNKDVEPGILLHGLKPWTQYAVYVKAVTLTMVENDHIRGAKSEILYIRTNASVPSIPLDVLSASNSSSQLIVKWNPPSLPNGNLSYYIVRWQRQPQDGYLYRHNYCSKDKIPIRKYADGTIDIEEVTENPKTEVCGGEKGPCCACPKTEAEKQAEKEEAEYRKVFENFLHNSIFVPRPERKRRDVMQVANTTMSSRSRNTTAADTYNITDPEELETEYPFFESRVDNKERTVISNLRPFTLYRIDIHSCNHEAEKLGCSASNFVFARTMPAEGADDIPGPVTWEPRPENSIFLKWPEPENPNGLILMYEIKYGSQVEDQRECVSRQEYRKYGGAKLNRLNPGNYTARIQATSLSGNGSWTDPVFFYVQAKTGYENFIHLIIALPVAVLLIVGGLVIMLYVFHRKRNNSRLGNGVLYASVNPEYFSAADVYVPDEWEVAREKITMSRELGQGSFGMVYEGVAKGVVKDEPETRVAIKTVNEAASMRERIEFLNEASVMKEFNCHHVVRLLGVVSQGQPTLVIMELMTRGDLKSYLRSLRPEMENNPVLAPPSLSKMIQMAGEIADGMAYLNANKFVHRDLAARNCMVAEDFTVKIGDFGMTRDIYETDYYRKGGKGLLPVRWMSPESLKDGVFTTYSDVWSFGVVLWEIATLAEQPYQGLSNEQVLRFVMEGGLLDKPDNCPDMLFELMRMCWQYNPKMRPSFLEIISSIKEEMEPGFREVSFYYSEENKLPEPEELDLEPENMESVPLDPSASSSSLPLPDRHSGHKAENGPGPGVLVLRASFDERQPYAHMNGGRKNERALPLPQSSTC

SMILES | IC50 (human IGF1R (hIGF1R)) | IC50 (ALK) | IC50 (human IR (hIR)) | IC50 [1] | IC50 [2]
Cc1ccc(NC(=O)CN(C)C)cc1Nc1nc(Nc2ccc(F)cc2C(N)=O)c2cc[nH]c2n1 [Example 62, 2-{[2-({5-[(N,N-dimethylglycyl)amino]-2-methylphenyl}amino)-1H-pyrrolo[2,3-d]pyrimidin-4-yl]amino}-5-fluorobenzamide] | 1.26 to 3.98 nM | 5.01 to 200 nM | 0.251 to 1 nM | 100 to 500 nM | 100 to 500 nM
COc1cc(N2CCN(CC(C)C)CC2)ccc1Nc1nc(Nc2cc(F)ccc2C(N)=O)c2cc[nH]c2n1 [Example 80, 4-fluoro-2-{[2-({2-(methyloxy)-4-[4-(2-methylpropyl)-1-piperazinyl]phenyl}amino)-1H-pyrrolo[2,3-d]pyrimidin-4-yl]amino}benzamide] | 1.26 to 3.98 nM | 0.251 to 1 nM | 0.251 to 1 nM | < 100 nM | 100 to 500 nM
CCCN1CCC=C(c2ccc(Nc3nc(Nc4ccc(Cl)cc4C(N)=O)c4cc[nH]c4n3)c(OC)c2)C1 [Example 108, 5-chloro-2-[(2-{[2-(methyloxy)-4-(1-propyl-1,2,5,6-tetrahydro-3-pyridinyl)phenyl]amino}-1H-pyrrolo[2,3-d]pyrimidin-4-yl)amino]benzamide] | 0.251 to 1 nM | 0.251 to 1 nM | 0.251 to 1 nM | 100 to 500 nM | 100 to 500 nM
CCCN1CCC=C(c2ccc(Nc3nc(Nc4cc(Cl)ccc4C(N)=O)c4cc[nH]c4n3)c(OC)c2)C1 [Example 110, 4-chloro-2-[(2-{[2-(methyloxy)-4-(1-propyl-1,2,5,6-tetrahydro-3-pyridinyl)phenyl]amino}-1H-pyrrolo[2,3-d]pyrimidin-4-yl)amino]benzamide] | 1.26 to 3.98 nM | 0.251 to 1 nM | 1.26 to 3.98 nM | 100 to 500 nM | > 500 nM
COc1cc2c(cc1Nc1nc(Nc3cccc(F)c3C(N)=O)c3cc[nH]c3n1)N(C(=O)CN(C)C)[C@H](C)C2 [Example 248, 2-[(2-{[(2R)-1-(N,N-dimethylglycyl)-2-methyl-5-(methyloxy)-2,3-dihydro-1H-indol-6-yl]amino}-1H-pyrrolo[2,3-d]pyrimidin-4-yl)amino]-6-fluorobenzamide] | 5.01 to 200 nM | 5.01 to 200 nM | 5.01 to 158 nM | 100 to 500 nM | 100 to 500 nM
CNC(=O)c1c(F)cccc1Nc1nc(Nc2cc3c(cc2OC)C[C@H](C)N3C(=O)CN(C)C)nc2[nH]ccc12 [Example 251, 2-[(2-{[(2S)-1-(N,N-dimethylglycyl)-2-methyl-5-(methyloxy)-2,3-dihydro-1H-indol-6-yl]amino}-1H-pyrrolo[2,3-d]pyrimidin-4-yl)amino]-6-fluoro-N-methylbenzamide] | 1.26 to 3.98 nM | 0.251 to 1 nM | 1.26 to 3.98 nM | < 100 nM | < 100 nM

More lines, now with the values ahead:

IC50 (human IGF1R (hIGF1R)) | IC50 (ALK) | IC50 (human IR (hIR)) | IC50 [1] | IC50 [2] | SMILES
1.26 to 3.98 nM | 0.251 to 1 nM | 1.26 to 3.98 nM | 100 to 500 nM | 100 to 500 nM | CCCN1CCC=C(c2ccc(Nc3nc(Nc4cccc(F)c4C(N)=O)c4cc[nH]c4n3)c(OC)c2)C1 [Example 41, 2-fluoro-6-[(2-{[2-(methyloxy)-4-(1-propyl-1,2,5,6-tetrahydro-3-pyridinyl)phenyl]amino}-1H-pyrrolo[2,3-d]pyrimidin-4-yl)amino]benzamide]
0.251 to 1 nM | 0.251 to 1 nM | 0.251 to 1 nM | 100 to 500 nM | 100 to 500 nM | CNC(=O)c1c(F)cc(Cl)cc1Nc1nc(Nc2cc3c(cc2OC)CCN3C(=O)CN(C)C)nc2[nH]ccc12 [Example 120, 4-chloro-2-[(2-{[1-(N,N-dimethylglycyl)-5-(methyloxy)-2,3-dihydro-1H-indol-6-yl]amino}-1H-pyrrolo[2,3-d]pyrimidin-4-yl)amino]-6-fluoro-N-methylbenzamide]
0.251 to 1 nM | 1.26 to 3.98 nM | 0.251 to 1 nM | < 100 nM | < 100 nM | COc1cc2c(cc1Nc1nc(Nc3cccc(F)c3C(N)=O)c3cc[nH]c3n1)N(C(=O)CN(C)C)[C@@H](C)C2 [Example 249, 2-[(2-{[(2S)-1-(N,N-dimethylglycyl)-2-methyl-5-(methyloxy)-2,3-dihydro-1H-indol-6-yl]amino}-1H-pyrrolo[2,3-d]pyrimidin-4-yl)amino]-6-fluorobenzamide]
5.01 to 200 nM | 5.01 to 200 nM | 5.01 to 158 nM | > 500 nM | > 500 nM | COc1cc(C)c(N(C)C(=O)CN(C)C)cc1Nc1nc(Nc2cccc(F)c2C(N)=O)c2cc[nH]c2n1 [Example 255, 2-[(2-{[5-[(N,N-dimethylglycyl)(methyl)amino]-4-methyl-2-(methyloxy)phenyl]amino}-1H-pyrrolo[2,3-d]pyrimidin-4-yl)amino]-6-fluorobenzamide]
0.251 to 1 nM | 0.251 to 1 nM | 0.251 to 1 nM | < 100 nM | 100 to 500 nM | CNC(=O)c1c(F)cccc1Nc1nc(Nc2cc(NC(=O)CN(C)C)c(C)cc2OC)nc2[nH]ccc12 [Example 256, 2-[(2-{[5-[(N,N-dimethylglycyl)amino]-4-methyl-2-(methyloxy)phenyl]amino}-1H-pyrrolo[2,3-d]pyrimidin-4-yl)amino]-6-fluoro-N-methylbenzamide]
0.251 to 1 nM | 0.251 to 1 nM | 0.251 to 1 nM | < 100 nM | < 100 nM | COc1cc(C)c(NC(=O)CN(C)C)cc1Nc1nc(Nc2cccc(F)c2C(N)=O)c2cc[nH]c2n1 [Example 257, 2-[(2-{[5-[(N,N-dimethylglycyl)amino]-4-methyl-2-(methyloxy)phenyl]amino}-1H-pyrrolo[2,3-d]pyrimidin-4-yl)amino]-6-fluorobenzamide]
